From paper PMC10267100 (Communications Biology, 2023)

Legend:
[1] = test system: WT M1 parental cells (M1 murine myeloid leukemic cell line); test: IL-6 dose response (differentiation) in WT M1 cells; type: cell-based; details: IL-6 dose response, Fig. 1a, approximate
Description: (§1) The M1 murine myeloid leukemic cell line responds in a dose-dependent manner to IL-6 stimulation. Culturing M1 cells in IL-6 results in differentiation from monocytic-like progenitor cells into terminally differentiated macrophages that undergo cell death. […] This was in contrast to five other phosphatases that were similarly overexpressed. Using an Incucyte growth assay, the growth of wild-type M1 cells was compared to that of M1 cells overexpressing HALO-PTP1B both with and without IL-6 (Fig. 1b). […] As expected, there was no difference in the growth rate of any of these cell lines in the absence of IL-6. […] To confirm that the activation loop of the JAKs are indeed a target of PTP1B, dephosphorylation assays with activated recombinant JAK kinase domains were performed in vitro. All four members of the JAK family were dephosphorylated in a PTP1B-dependent manner although JAK1 was dephosphorylated to a lesser extent than others (Fig. 1c).
Fig. 1 PTP1B dephosphorylates the JAK activation loops. a IL-6 dose response curves for phosphatases overexpressed in the M1 cell line. […] (Top) Immunoblot (IB) probing for phosphorylated-JAK (P-JAK1 antibody) activation loop. (Bottom) Ponceau stained membrane to confirm equal input of proteins on gel. Data are representative of 3 independent experiments. d Overexpression of FLAG-JAK and HALO-PTP1B in HEK293T cells. […]

[2] = test system: M1 cells overexpressing PTP1B; test: IL-6 dose response (differentiation) in M1 cells overexpressing PTP1B; type: cell-based, murine; details: IL-6 dose response, Fig. 1a, approximate
Description: as §1, with “1c). […]” for “1c).”
Murine PTP1B with an N-terminal Halo tag was sub-cloned into the Tet-On pfTRE3G expression vector for generation of a stable doxycycline-inducible Halo-mPTP1B expressing HEK293T cell line. […] 24 h post-transfection, cells were lysed in sample reducing buffer and analysed by SDS-PAGE and immunoblot as above (dephosphorylation assays). […]

With “IL-6: cytokine used to stimulate M1 cells” the “EC50 of IL-6 (induction of differentiation)” value [1] was roughly 2 ng/mL and the “EC50 of IL-6 (induction of differentiation)” value [2] was “approximately 10 ng/mL”.
